These results are taken from patent publication US10821079B2, “PKC activators and combinations thereof” (Cognitive Research Enterprises, Inc., priority 2011, dated 2020).

Assay [1] has as its system SH-SY5Y neuroblastoma cells. Briefly: Neuronal and synaptic marker expression in cells treated with RA and Bryostatin-1 (immunofluorescence, immunoblot). Type of assay: cell-based, human. On the procedure:
Human SH-SY5Y neuroblastoma cells (ATCC) were cultured in 45% F12K, 45% minimum Eagle's medium, 10% fetal calf serum. […] For differentiation of SH-SY5Y cells were maintained at 2% serum and treated with 10 μM RA for 72 hr. […] Medium was changed every 3 days with fresh supplementation of RA. Rat hippocampal neurons from 18-day-old embryonic Sprague-Dawley rat brains were plated on 24-well plates coated with poly-D-lysine (Sigma-Aldrich) in neurobasal medium supplemented with B-27 containing 0.5 mM glutamine and 25 μM glutamate (Invitrogen). The neuronal cells were grown under 5% CO2 for 14 days in an incubator maintained at 37° C.
Cells were harvested in homogenizing buffer containing 10 mM Tris-Cl (pH 7.4), 1 mM PMSF (phenylmethylsulfonyl fluoride), 1 mM EGTA, 1 mM EDTA, 50 mM NaF, and 20 μM leupeptin and were lysed by sonication. […] Protein concentration was measured using the Coomassie Plus (Bradford) Protein Assay kit (Pierce, USA). Following quantification, 20 μg of protein from each sample was subjected to SDS-PAGE analysis in 4-20% gradient Tris-Glycine gel (Invitrogen, USA). […] Western Blot was imaged in the ImageQuant RT-ECL (GE Life Sciences, Piscataway, N.J.) and densitometric quantification was performed using the IMAL software (Blanchette Rockefeller Neurosciences Institute, Morgantown, W. Va.). […]
In general terms: A western blot detects proteins with antibodies after separation by electrophoresis.

For the next assay, the target named is PKC-δ (Homo sapiens, UniProt Q05655). Briefly: Activation of purified PKC isozymes, radiometric: PKC-δ. Type of assay: biochemical. On the procedure: To measure PKC activity, 10 μg of protein from either cytosol or membrane was incubated for 15 min at 37° C. in the presence of 10 μM histones, 4.89 mM CaCl2, 1.2 μg/μl phosphatidyl-L-serine, 0.18 μg/μl 1,2-dioctanoyl-sn-glycerol, 10 mM MgCl2, 20 mM HEPES (pH 7.4), 0.8 mM EDTA, 4 mM EGTA, 4% glycerol, 8 μg/ml aprotinin, 8 μg/ml leupeptin, 2 mM benzamidine, and 0.5 μCi of [γ-^32P]ATP. [^32P]Phosphoprotein formation was measured by adsorption onto phosphocellulose as described previously. See Nelson et al. (2009) J Biol Chem 284, 34514-34521. For measurements of activation by RA, PKC activity was measured in the absence of diacylglycerol (DAG) and phosphatidylserine, as described by Nelson et al. (2009) J Biol Chem 284, 34514-34521. PKC-δ and PKC-ε were measured in the absence of added EGTA and CaCl^2, as described by Kanno et al. (2006) J Lipid Res 47, 1146-1156. The enzyme was provided as a purified isozyme for in vitro experiments.
To measure PKC, 10 μl of cell homogenate or purified PKC isoform was incubated for 15 min at 37° C. in the presence of 10 μM histones, 4.89 mM CaCl2, 1.2 μg/μl phosphatidyl-L-serine, 0.18 μg/μl 1,2-dioctanoyl-sn-glycerol, 10 mM MgCl2, 20 mM HEPES (pH 7.4), 0.8 mM EDTA, 4 mM EGTA, 4% glycerol, 8 μg/ml aprotinin, 8 μg/ml leupeptin, and 2 mM benzamidine. [γ32P]ATP (0.5 μCi) was added and 32P-phosphoprotein formation was measured by adsorption onto phosphocellulose as described previously. See Nelson et al., J. Neurochemistry, 1995, 65: 2350-2357.
PKC activity of each compound was measured in the absence of diacylglycerol and phosphatidylserine and PKC-δ and PKC-ε were measured in the absence of added EGTA and CaCl2, as described by Kanno et al., J. Lipid Res., 2006, 47: 1146-1156. Low concentrations of Ca^2+ were needed because high Ca^2+ can interact with the PKC phosphatidylserine binding site and prevents activation. […] To determine their PKC isoform specificity, the compounds were pre-incubated with purified isoforms of PKC for five minutes and the PKC activity was measured radiometrically.

“Also recorded” adds a separate entry of the source.

Chain of PKC-δ (Q05655 whole entry): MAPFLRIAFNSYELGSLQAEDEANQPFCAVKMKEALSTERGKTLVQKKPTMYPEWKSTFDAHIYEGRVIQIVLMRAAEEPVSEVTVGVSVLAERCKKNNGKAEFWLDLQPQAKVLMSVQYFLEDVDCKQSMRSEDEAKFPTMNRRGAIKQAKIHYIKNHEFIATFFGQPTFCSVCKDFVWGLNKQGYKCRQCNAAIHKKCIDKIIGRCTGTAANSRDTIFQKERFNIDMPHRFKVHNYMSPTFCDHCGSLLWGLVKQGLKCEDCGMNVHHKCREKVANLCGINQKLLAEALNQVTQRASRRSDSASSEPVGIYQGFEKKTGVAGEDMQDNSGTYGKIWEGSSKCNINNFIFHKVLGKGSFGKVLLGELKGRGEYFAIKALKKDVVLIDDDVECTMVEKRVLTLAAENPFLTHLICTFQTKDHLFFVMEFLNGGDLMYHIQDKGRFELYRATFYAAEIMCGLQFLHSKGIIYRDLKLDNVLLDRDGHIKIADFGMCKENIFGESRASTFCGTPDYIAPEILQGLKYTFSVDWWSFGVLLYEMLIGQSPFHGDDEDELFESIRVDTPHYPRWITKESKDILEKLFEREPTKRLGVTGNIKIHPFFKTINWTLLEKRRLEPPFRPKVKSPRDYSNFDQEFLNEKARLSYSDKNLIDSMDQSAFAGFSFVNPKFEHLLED

`CCC/C=C/C=C/C(=O)O[C@H]1/C(=C/C(=O)OC)C[C@H]2C[C@H]([C@@H](C)O)OC(=O)C[C@H](O)C[C@@H]3C[C@H](OC(C)=O)C(C)(C)C(O)(C[C@@H]4C/C(=C/C(=O)OC)C[C@H](/C=C/C(C)(C)[C@]1(O)O2)O4)O3` [Bryostatin-1]: the “increase of synaptophysin expression (immunoblot)” value in assay [1] (alone, 72 hr) is 50%.

`CCCCCC1CC1CC1CC1CCCCCCCC(=O)OC` (stereo not shown) [DCPLA-ME, methyl 8-(2-((2-pentylcyclopropyl)methyl)cyclopropyl)octanoate]: the “effect on PKC-δ (in words)” value on PKC-δ is “did not have a major effect; also recorded: less inhibitory effect on PKC-δ than DHA-CP6 and DCPLA”. As for `CC1=C(/C=C/C(C)=C/C=C/C(C)=C/C(=O)O)C(C)(C)CCC1` [RA, All-trans retinoic acid], the “change in synaptophysin or PSD-95 (in words)” value in assay [1] (RA only) was “did not show much change”. Moreover, the “effect on PKC-δ (in words)” value at PKC-δ is “not activated”.
